The values that follow are results of earlier work, collected in US9085562B2, “6-alkyl-N-(pyridin-2-yl)-4-aryloxypicolinamide analogs as mGluR5 negative allosteric modulators and methods of making and using the same” (Vanderbilt University, priority 2011, dated 2015).

For one data set, the target named is T1, cytochrome P450 1A2 (Homo sapiens, UniProt P05177).
T1 sequence (P05177 1-516): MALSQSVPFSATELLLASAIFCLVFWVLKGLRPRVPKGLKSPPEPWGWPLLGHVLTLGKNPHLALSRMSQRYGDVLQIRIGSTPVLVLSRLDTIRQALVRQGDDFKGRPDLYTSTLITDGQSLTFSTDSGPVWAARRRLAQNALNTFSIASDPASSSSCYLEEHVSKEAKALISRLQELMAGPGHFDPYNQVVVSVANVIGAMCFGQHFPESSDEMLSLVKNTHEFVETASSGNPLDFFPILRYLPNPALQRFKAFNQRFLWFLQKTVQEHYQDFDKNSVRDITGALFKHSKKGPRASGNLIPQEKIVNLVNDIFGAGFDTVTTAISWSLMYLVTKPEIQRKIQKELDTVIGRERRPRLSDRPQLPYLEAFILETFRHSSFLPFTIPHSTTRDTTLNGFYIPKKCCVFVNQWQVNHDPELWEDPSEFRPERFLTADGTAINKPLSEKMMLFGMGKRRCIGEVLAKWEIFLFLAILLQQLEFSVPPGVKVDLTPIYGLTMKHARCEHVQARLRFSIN
As to conditions: cited from earlier work.

For data set [1] the following is noted: intravenous administration to rhesus monkeys; cited from earlier work.

The structures appear in SMILES notation.

Regarding `Cc1nc(C#Cc2cccnc2)cs1` [MTEP, 3-[(2-methyl-1,3-thiazol-4-yl)ethynyl]pyridine], the “inhibition of cytochrome P450 1A2” value on cytochrome P450 1A2 was “potent inhibitor of cytochrome P450 1A2”. In data set [1], the clearance result was “efficiently cleared”.
